Experimental data taken from EPA's ToxValDB 9.5.
Where “and” joins values, the source holds several entries; their conditions need not be identical. Equal values may be shown once.

Tests used:
[1] = tested on: Canidae; details: oral, capsule, M/F, Beagle
[2] = tested on: Rattus norvegicus; details: for LEL: uterotrophic, duration: 3 days, Active; for LOEL / NOEL: Hershberger, gavage
[3] = tested on: Mus musculus; details: subchronic; duration: 90 days; oral; gavage; M/F; CD1; hepatic
[4] = tested on: Mus musculus; details: subchronic; oral; M/F; nephropathy, increased liver weight, hematological alterations, and clinical effects
[5] = tested on: Canidae; details: chronic, oral, Dog Other
[6] = tested on: Rattus norvegicus; details: chronic, oral, diet
[7] = tested on: Homo sapiens; details: clinical, oral
[8] = tested on: Homo sapiens; details: clinical; oral; M/F; central nervous system depression and gi irritation in humans
[9] = tested on: Rattus norvegicus; details: oral
[10] = tested on: Canidae; details: subchronic; duration: 13 weeks; oral; diet; Beagle
[11] = tested on: Mus musculus; details: acute; injection; intravenous
[12] = tested on: Rattus norvegicus
[13] = tested on: Canidae; details: chronic, duration: 2 years, oral, diet, M/F, Dog Other
[14] = tested on: Rattus norvegicus; experiment: LD0; higher = less toxic; details: acute
[15] = subchronic, duration: 13 weeks, diet, F, Crl
[16] = subchronic, duration: 13 weeks, diet, M, Crl
[17] = subchronic, duration: 13 weeks, oral, diet
[18] = duration: 9 months, Decreased bodyweights, mortality, prostatic malfunction, foci of softening in the brainstem, & testicular atrophy
[19] = increased serum alkaline phosphatase and liver weight, and hepatic lesions
[20] = duration: 7 days, oral, Sprague-Dawley, active + Antiandrogenic + anti-androgenic + reduced SV and caudal epididymal wt / PPS delayed
[21] = duration: 10 days, oral, Wistar, active + Antiandrogenic + anti-androgenic + reduced SV and caudal epididymal wt / PPS delayed

COC(=O)Nc1nc2ccc(C(=O)c3ccc(F)cc3)cc2[nH]1 [Flubendazole] showed an NOEL ([1]; duration: 3 months, Atrophic change in prostate) of 2.5 mg/kg-day and an NOEL ([1]; subchronic, duration: 3 months, Atrophic change in prostate) of 2.5 mg/kg-day.
In the case of c1ccc2c(c1)-c1cccc3cccc-2c13 [Fluoranthene], the LEL ([2]; injection, subcutaneous) is reported as 10 mg/kg-day, the LOAEL [3] is reported as 125 mg/kg-day and the LOAEL [4] is reported as 250 mg/kg-day. For the same molecule, the NOAEL [4] was 125 mg/kg-day.
CC(COc1ccc(C(C)(C)C)cc1)OS(=O)OCCCl (stereo unspecified) [Aramite] was tested, and the NOAEL ([5]; duration: 52 weeks, diet, Liver: Degeneration) was 10 mg/kg-day and the NOAEL ([6]; duration: 104 weeks, Liver: Increased weight) was 7.8 mg/kg-day.
For COP(=O)(OC)C(O)C(Cl)(Cl)Cl (stereo unspecified) [Trichlorfon], the LOEL ([7]; duration: 10 weeks, Inhibition of acetylcholinesterase activity) was 0.2 mg/kg-day.
OC(O)C(Cl)(Cl)Cl [Chloral hydrate] gave an LOAEL [8] of 10.7 mg/kg-day.
CN(C)[C@@H]1C(=O)C(C(N)=O)=C(O)[C@@]2(O)C(=O)C3=C(O)c4c(O)cccc4[C@@](C)(O)[C@H]3C[C@@H]12 [Tetracycline] was tested, and the NOEL ([7]; Selection of resistant bacterial strains) was 0.033 mg/kg-day.
Molecule CCCCCCO [1-Hexanol] has an NOAEL [9, 15] of 1240 mg/kg-day, an NOEL [9, 15] of 1240 mg/kg-day and an NOAEL [9, 16] of 1130 mg/kg-day. The NOEL [9, 16] was 1130 mg/kg-day, the “LOAEL (% diet)” value [10] was 1 and the “NOAEL (% diet)” value [10] was > 0.5. The LD50 [11] was 100 mg/kg, the LC50 ([12]; acute, inhalation) was > 21 µg/mL and the NOAEL ([12]; developmental, inhalation, Sprague-Dawley) was > 3500 mg/m3. For the same molecule, the NOAEL ([12]; reproduction developmental, inhalation, F, Sprague-Dawley) was > 3500 mg/m3, the “LOAEL (% diet)” value [12, 17] was 1 and the “NOAEL (% diet)” value [12, 17] was > 0.5.
For N=C(N)c1ccc(N=NNc2ccc(C(=N)N)cc2)cc1 [Diminazene], the LOEL [1, 18] was 60 mg/kg-day and the NOEL [1, 18] was 20 mg/kg-day.
Work on CC(CCc1ccc(O)cc1)NCC(O)c1ccc(O)cc1.Cl (stereo unspecified) [Ractopamine hydrochloride] yielded an NOEL ([7]; M, Changes in cardiovascular function variables) of 0.067 mg/kg-day.
With CCC(CC)Nc1c([N+](=O)[O-])cc(C)c(C)c1[N+](=O)[O-] [Pendimethalin] the LEL ([2]; oral) was 300 mg/kg-day, the NOEL ([5]; duration: 2 years, capsule, Liver: Effects) was 12.5 mg/kg-day and the LEL [13, 19] was 50 mg/kg-day. For the same molecule, the NOEL [13, 19] was 12.5 mg/kg-day.
In the case of O=S(=O)([O-])c1cc(Nc2nc(Nc3ccccc3)nc(N3CCOCC3)n2)ccc1C=Cc1ccc(Nc2nc(Nc3ccccc3)nc(N3CCOCC3)n2)cc1S(=O)(=O)[O-].[Na+].[Na+], the NOAEL ([9]; short-term, duration: 28 days, gavage, Wistar) is reported as 825 mg/kg-day, the LD50 ([12]; acute, oral, Sprague-Dawley) is reported as 7000 mg/kg and the LD50 ([12]; acute, oral, gavage, Sprague-Dawley) is reported as > 5000 mg/kg. For the same molecule, the NOAEL ([12]; chronic, duration: 24 months, oral, diet, F, Wistar) was 791 mg/kg-day, the NOAEL ([12]; chronic, duration: 24 months, oral, diet, M, Wistar) was 524 mg/kg-day and the NOAEL ([12]; short-term, duration: 14 days, oral, gavage, F, Wistar) was 1000 mg/kg-day. The NOAEL ([12]; short-term, duration: 14 days, oral, gavage, M, Wistar) was 1000 mg/kg-day and the LD0 ([14]; dermal, semiocclusive, Wistar) was > 2000 mg/kg.
With O=C(O)c1ccc(C(=O)O)cc1 [Terephthalic acid] the NOEL ([6]; duration: 2 years, Bladder: Hyperplasia) was 142 mg/kg-day and the LD0 ([14]; oral) was 2000 mg/kg.
Work on CC[C@@H](C(=O)O)[C@@H]1O[C@@H]([C@@H](C)[C@H](O)[C@H](C)C(=O)[C@H](CC)[C@H]2O[C@]3(C=C[C@@H](O)[C@]4(CC[C@@](C)([C@H]5CC[C@](O)(CC)[C@H](C)O5)O4)O3)[C@H](C)C[C@@H]2C)[C@@H](C)C[C@@H]1C [Narasin] yielded an NOAEL ([1]; chronic, duration: 1 years, Minimal to slight peripheral nerve changes & focal skeletal muscle degeneration) of 0.5 mg/kg-day.
For CON(C)C(=O)Nc1ccc(Cl)c(Cl)c1 [Linuron], the LOEL [2, 20] was 40 mg/kg-day and 100 mg/kg-day, the NOEL [2, 20] was 20 mg/kg-day and the NOEL ([2]; duration: 10 days, oral, Sprague-Dawley, inactive + Negative + anti-androgenic + reduced SV and caudal epididymal wt / PPS delayed) was 20 mg/kg-day. For the same molecule, the LOEL [2, 21] was 40 mg/kg-day and 100 mg/kg-day, the NOEL [2, 21] was 20 mg/kg-day and 10 mg/kg-day and the NOEL ([2]; duration: 10 days, oral, Wistar, inactive + Negative + anti-androgenic + reduced SV and caudal epididymal wt / PPS delayed) was 20 mg/kg-day. The NOEL ([2]; duration: 10 days, oral, wistar, active + Antiandrogenic + anti-androgenic + reduced SV and caudal epididymal wt / PPS delayed) was 20 mg/kg-day and 30 mg/kg-day and 10 mg/kg-day, the LOAEL ([5]; duration: 2 years, diet, Blood: Hematological effects) was 0.625 mg/kg-day and the LEL ([13]; abnormal blood pigment) was 0.625 mg/kg-day.
In the case of CC[C@@H]1CCN[C@H](C(=O)N[C@@H]([C@H]2O[C@H](SC)[C@H](O)[C@@H](O)[C@H]2O)[C@H](C)Cl)C1 [Pirlimycin], the NOEL ([7]; capsule, M, Clostridium difficile in stool) is reported as 50 mg.
